As usually defined, the inhibition is the change of the read-out against control, counted positive when it falls. By IC50 is commonly meant the midpoint of a concentration-inhibition curve.

Here are results for 7 compounds from patent US20220119367A1, “HETEROCYCLIC COMPOUNDS AS ADENOSINE ANTAGONISTS” (Nuvation Bio Inc., priority 2019, published 2022).

For test [1], the target named is T1, adenosine A1 (human) membrane (Homo sapiens, UniProt P30542).
T1 construct: purchased PerkinElmer ES-010-M400UA
T1 sequence (P30542 1-326): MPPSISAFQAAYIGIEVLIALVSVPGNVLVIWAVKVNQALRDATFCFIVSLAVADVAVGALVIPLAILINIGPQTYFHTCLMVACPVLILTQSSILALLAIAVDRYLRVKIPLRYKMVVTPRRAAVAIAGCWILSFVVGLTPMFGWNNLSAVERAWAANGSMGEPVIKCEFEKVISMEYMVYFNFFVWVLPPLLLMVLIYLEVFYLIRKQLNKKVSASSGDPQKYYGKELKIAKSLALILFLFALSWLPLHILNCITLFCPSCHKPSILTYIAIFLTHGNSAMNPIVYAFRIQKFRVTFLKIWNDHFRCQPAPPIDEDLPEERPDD
The test can be described thus: A1 adenosine receptor radioligand binding assay ([3H] DPCPX). The following applies: compound at 200 nM, radioligand [3H] DPCPX 1 nM. The procedure: A second A1 adenosine receptor radioligand binding assay protocol was used. The protocol used adenosine A1 (human) membrane (PerkinElmer ES-010-M400UA) at a concentration of 2.5 μg/well/100 μl and the radioligand [3H] DPCPX (Cat No. PerkinElmer-NET974250UC) at a final concentration of 1 nM. Testing compounds were tested at a final concentration of 200 nM. CGS-15943, the reference compound, was tested in an 8-point 4-fold serial dilution, starting at a top concentration of 1 μM. 1 μl of compounds/high control/low control was transferred to the assay plate according to a plate map, followed by 100 μl of membrane stocks and 100 μl of radioligand, in assay buffer (25 mM HEPES, 5 mM MgCl2, 1 mM CaCl2, 100 mM NaCl, pH 7.4). The plate was sealed and incubated at RT for 1 hour. Unifilter-96 GF/C filter plates (Perkin Elmer Cat #6005174) were soaked with 50 μl of 0.3% PEI per well for at least 0.5 hour at room temperature. When the binding assays were completed, the reaction mixtures were filtered through GF/C plates using Perkin Elmer Filtermate Harvester, and each plate washed 4 times with cold wash buffer (25 mM HEPES, 5 mM MgCl2, 1 mM CaCl2, 100 mM NaCl, pH 7.4). The filter plates were dried for 1 hour at 50 degrees. After drying, the bottom of the filter plate wells was sealed, 50 μl of Perkin Elmer Microscint 20 cocktail was added, and the top of the filter plate was sealed. ^3H trapped on the filter was counted using Perkin Elmer MicroBeta2 Reader. The data were analyzed with GraphPad Prism 5 to obtain binding IC50 values for the reference compound. The “Inhibition [% Control]” was calculated using the equation: % Inh =(1−Background subtracted Assay value/Background subtracted HC value)*100, where HC is high control.

Test [2] deals with T2, adenosine A2a (human) membrane (Homo sapiens, UniProt P29274).
T2 construct: purchased PerkinElmer RBHA2AM400UA
T2 sequence (P29274 whole entry): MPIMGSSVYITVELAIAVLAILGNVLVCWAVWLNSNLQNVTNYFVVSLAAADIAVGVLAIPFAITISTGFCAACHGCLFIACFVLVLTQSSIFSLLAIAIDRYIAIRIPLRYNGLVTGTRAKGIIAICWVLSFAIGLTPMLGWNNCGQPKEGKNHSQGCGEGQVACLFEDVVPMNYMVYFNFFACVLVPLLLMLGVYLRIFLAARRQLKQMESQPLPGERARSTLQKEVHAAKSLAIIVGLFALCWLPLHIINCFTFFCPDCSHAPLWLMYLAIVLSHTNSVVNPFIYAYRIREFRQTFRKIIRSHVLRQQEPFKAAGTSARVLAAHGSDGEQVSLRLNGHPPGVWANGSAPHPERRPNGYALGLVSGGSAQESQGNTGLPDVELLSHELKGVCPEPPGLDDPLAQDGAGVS
The test can be described thus: A2A adenosine receptor radioligand binding assay ([3H] CGS-21680). As to conditions: radioligand [3H] CGS-21680 6 nM. As for the experimental part: A second A2A adenosine receptor radioligand binding assay protocol was used. The protocol used adenosine A2a (human) membrane (PerkinElmer RBHA2AM400UA) at a concentration of 5 μg/well/100 μl and the radioligand [3H] CGS-21680 (Cat No. PerkinElmer-NET1021250UC) at a final concentration of 6 nM. Testing compounds were diluted with DMSO to make 8-point 4-fold serial dilution, starting at 0.2 mM. CGS-15943 was the reference compound. 1 μl of compounds/high control/low control was transferred to the assay plate according to a plate map, followed by 100 μl of membrane stocks and 100 μl of radioligand, in assay buffer (50 mM Tris-HCl, 10 mM MgCl2, 1 mM EDTA, pH 7.4). The plate was sealed and incubated at RT for 2 hours. Unifilter-96 GF/C filter plates (Perkin Elmer Cat #6005174) were soaked with 50 μl of 0.3% PEI per well for at least 0.5 hour at room temperature. When the binding assays were completed, the reaction mixtures were filtered through GF/C plates using Perkin Elmer Filtermate Harvester, and each plate washed 4 times with cold wash buffer (50 mM Tris-HCl, 154 mM NaCl, pH 7.4). The filter plates were dried for 1 hour at 50 degrees. After drying, the bottom of the filter plate wells was sealed, 50 μl of Perkin Elmer Microscint 20 cocktail was added, and the top of the filter plate was sealed. ^3H trapped on the filter was counted using Perkin Elmer MicroBeta2 Reader. The data were analyzed with GraphPad Prism 5 to obtain binding IC50 values. The “Inhibition [% Control]” was calculated using the equation: % Inh=(1−Background subtracted Assay value/Background subtracted HC value)*100, where HC is high control.

The target in test [3] is T3, HEK-293 cells expressing human recombinant A1 receptor (Homo sapiens, UniProt P30542).
T3 construct: expressed in transfected cells; host or cells: HEK-293
T3 sequence (P30542 1-326): T1 sequence (P30542 1-326)
Nature of the test: cAMP assay (Assay 2), A1 receptor. Type of test: cell-based. As to conditions: HEK-293 cells expressing A1 receptor. The procedure:
(§1) The functional activity of compounds was tested using Assay 2 below, to detect the presence of cAMP. Assay 1 is an alternative assay for this purpose. Activation of G-protein coupled receptors (such as A2A) results in activation of adenylyl cyclase which converts ATP into cAMP which is used as a downstream signaling molecule. Molecules which act as GPCR (or specifically A2A receptor) antagonists cause a decrease in intracellular cAMP concentration.
(§2) Assay 2 (Table B2): This assay used HEK-293 cells expressing human recombinant adenosine A2A receptor (or, alternatively, A1 receptor) that were grown prior to the test in media without antibiotic. 100 nL of test articles at 100× of final concentration were transferred to assay plate by Echo. Cells were washed twice with 5 mL of PBS and 10 μL of cells were mixed with 5 mL PBS. After aspirating the PBS and adding 1.5 mL versine, cells were incubated at 37° C. for 2-5 min. After centrifugation, 4 mL of medium was added and adjusted cell density to 5,000 cells/well with Stimulation Buffer. 10 μL of cells were aliquoted to the assay plate, centrifuged at 1000 rpm for 1 minute, and incubated for 60 minutes at room temperature. 5 μL 4× Eu-cAMP tracer solution and 5 μL 4× Ulight™-anti-cAMP solution were added to assay plate, followed by centrifugation and 60-minute incubation at room temperature. Plates were read on EnVision.

For test [4], the target named is T4, HEK-293 cells expressing human recombinant adenosine A2A receptor (Homo sapiens, UniProt P29274).
T4 construct: expressed in transfected cells; host or cells: HEK-293
T4 sequence (P29274 whole entry): as above
The test can be described thus: cAMP assay (Assay 2), A2A receptor. The following applies: HEK-293 cells expressing human A2A receptor. Type of test: cell-based. The procedure:
as §1, §2

In test [1], `C[C@H](c1ccccn1)N(C)C(=O)c1nc(-c2ccc3ncccc3c2)c(-c2ccccc2)nc1N` [compound 119, (R)-3-amino-N-methyl-5-phenyl-N-(1-(pyridin-2-yl)ethyl)-6-(quinolin-6-yl)pyrazine-2-carboxamide] had an inhibition at 0.2 µM of 49%. This compound yielded an IC50 in test [2] of 105 nM.
In the case of `CC(C)(O)c1cccc(COc2nc(-c3cc(Cl)c4ncccc4c3)c(-c3ccc(F)cc3)nc2N)n1` [Compound No. 58, 2-(6-(((3-amino-6-(8-chloroquinolin-6-yl)-5-(4-fluorophenyl)pyrazin-2-yl)oxy)methyl)pyridin-2-yl)propan-2-ol], the IC50 in test [3] was determined as 92.7 nM; in test [4], 18.4 nM. Besides, the inhibition at 0.2 µM in test [1] turned out to be 85%.
Regarding `CC(C)(O)c1cccc(COc2nc(-c3ccc4ncccc4c3)c(-c3ccccc3)nc2N)n1` [compound 2, 2-(6-(((3-amino-5-phenyl-6-(quinolin-6-yl)pyrazin-2-yl)oxy)methyl)pyridin-2-yl)propan-2-ol], the IC50 in test [3] is 32.3 nM; in test [4], 15.1 nM.
As to `CC(C)(O)c1cccc(Cn2cc(-c3nc(-c4ccc5ncccc5c4)c(-c4ccccc4)nc3N)nn2)n1` [compound 102, 2-(6-((4-(3-amino-5-phenyl-6-(quinolin-6-yl)pyrazin-2-yl)-1H-1,2,3-triazol-1-yl)methyl)pyridin-2-yl)propan-2-ol], the IC50 in test [3] came out at 8.7 nM; in test [4] it was 19.6 nM. In test [1], the inhibition at 0.2 µM is 97%.
For `CC(NC(=O)c1nc(-c2ccc3ncccc3c2)c(-c2ccccc2)nc1N)c1ccccc1` (stereo not drawn) [compound 121, 3-amino-5-phenyl-N-(1-phenylethyl)-6-(quinolin-6-yl)pyrazine-2-carboxamide], the inhibition at 0.2 µM in test [1] amounted to 68%. For the same compound, the IC50 in test [2] is 2.1 nM.
For `C[C@@H](c1ccccn1)N(C)C(=O)c1nc(-c2ccc3ncccc3c2)c(-c2ccccc2)nc1N` [compound 120, (S)-3-amino-N-methyl-5-phenyl-N-(1-(pyridin-2-yl)ethyl)-6-(quinolin-6-yl)pyrazine-2-carboxamide] the same measures were 90% and 65 nM.
On to `Cc1ccn(-c2nc(N)c(OCc3cccc(C(C)(C)O)n3)nc2-c2cc(Cl)c3ncccc3c2)n1` [compound 1, 2-(6-(((3-amino-6-(8-chloroquinolin-6-yl)-5-(3-methyl-1H-pyrazol-1-yl)pyrazin-2-yl)oxy)methyl)pyridin-2-yl)propan-2-ol], for which, in test [4], the IC50 turned out to be 164 nM.
